Consider three molecules from US5352599A, “Co-enzyme-independent L-sorbosone dehydrogenase of gluconobacter oxydans: isolation, characterization, and cloning and autologus expression of the gene” (Hoffmann-La Roche Inc., priority 1988, dated 1994).

Series [1] addresses T1, membrane-bound L-sorbosone dehydrogenase from Gluconobacter oxydans IFO 12258, purified, coenzyme independent (Gluconacetobacter liquefaciens, UniProt Q44091).
T1 construct: endogenous in cells; host or cells: Gluconobacter oxydans IFO 12258 (enzyme isolated from the strain itself)
T1 sequence (Q44091 1-449): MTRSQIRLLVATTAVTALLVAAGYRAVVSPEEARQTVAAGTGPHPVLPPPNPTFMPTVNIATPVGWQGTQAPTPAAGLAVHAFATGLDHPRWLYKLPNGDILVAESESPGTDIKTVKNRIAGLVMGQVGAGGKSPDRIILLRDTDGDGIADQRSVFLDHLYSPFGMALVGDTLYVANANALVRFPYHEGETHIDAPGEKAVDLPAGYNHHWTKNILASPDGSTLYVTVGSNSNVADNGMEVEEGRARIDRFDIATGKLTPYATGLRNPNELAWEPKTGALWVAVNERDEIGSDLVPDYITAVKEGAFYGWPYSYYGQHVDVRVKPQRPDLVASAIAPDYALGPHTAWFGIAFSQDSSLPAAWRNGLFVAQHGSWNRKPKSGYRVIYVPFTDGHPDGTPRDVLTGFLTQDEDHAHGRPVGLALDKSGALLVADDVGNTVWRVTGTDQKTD
As to the kind of experiment: L-sorbosone dehydrogenase enzyme assay (DCIP reduction at 600 nm, 25° C.). In kind it is biochemical. On the procedure:
(§1) Enzyme assay was performed at 25° C. by measuring the decrease of absorbance at 600nm of DCIP spectrophotometrically. One unit of enzyme activity was defined as the amount of enzyme which catalyzed the reduction of 1 μmole of DCIP per minute.
(§2) The extinction coefficient of DCIP at pH 7.0 was taken as 9.45mM^-1. The basal reaction mixture is shown below. The mixture was prepared just before the assay.
(§3) A cuvette with 1cm light path contained 0.4ml of basal mixture, 20μl of 10mM phenazine methosulphate, 10μl of enzyme solution and 20μl of 110mM L-sorbosone solution in a final volume of 0.45ml. A reference cuvette contains all components except the substrate. The reaction was initiated by the addition of the substrate. Enzyme activity was measured as the initial reduction rate of DCIP.

Substrate in series [2]: O=CC(=O)[C@@H](O)[C@H](O)[C@@H](O)CO
Described as above. Particulars: other: pH7.0, purified enzyme, pH 7.0. In kind it is biochemical, Gluconobacter oxydans IFO 12258. On the procedure: as §1, §2, §3

For the molecule `O=C(O)CI` [ICH2 COOH, Monoiodoacetic acid], the “inhibition of the enzyme (in words)” value in series [1] is given as “moderately inhibited”. The inhibition at 10000 µM in series [1] (read-out: Relative activity (%) in presence of inhibitor) came out at 64.3%.
`[N-]=[N+]=[N-].[Na+]` [NaN3]: in series [1] (inhibitor 25 mM, L-Sorbosone as the substrate, None = 100), the “Relative activity (%) in presence of inhibitor” value was found to be 89.4%.

B1: membrane-bound L-sorbosone dehydrogenase from Gluconobacter oxydans IFO 12258, purified, coenzyme independent (Gluconacetobacter liquefaciens) (protein)
chain: MTRSQIRLLVATTAVTALLVAAGYRAVVSPEEARQTVAAGTGPHPVLPPPNPTFMPTVNIATPVGWQGTQAPTPAAGLAVHAFATGLDHPRWLYKLPNGDILVAESESPGTDIKTVKNRIAGLVMGQVGAGGKSPDRIILLRDTDGDGIADQRSVFLDHLYSPFGMALVGDTLYVANANALVRFPYHEGETHIDAPGEKAVDLPAGYNHHWTKNILASPDGSTLYVTVGSNSNVADNGMEVEEGRARIDRFDIATGKLTPYATGLRNPNELAWEPKTGALWVAVNERDEIGSDLVPDYITAVKEGAFYGWPYSYYGQHVDVRVKPQRPDLVASAIAPDYALGPHTAWFGIAFSQDSSLPAAWRNGLFVAQHGSWNRKPKSGYRVIYVPFTDGHPDGTPRDVLTGFLTQDEDHAHGRPVGLALDKSGALLVADDVGNTVWRVTGTDQKTD
notes: endogenous in cells; host or cells: Gluconobacter oxydans IFO 12258 (enzyme isolated from the strain itself)
For B1, the Michaelis-Menten constant (Km) in series [2] was determined as 16.7 mM.

What is called Km is the concentration of substrate that gives half-maximal velocity.
